Laboratory results published in US9249125B2, “Pyrazole derivatives as p38 MAP inhibitors” (RESPIVERT LIMITED, priority 2012, dated 2016).
pEC50, pIC50: −log10 of the molar value.

Tests used:
[1] = test system: LPS-induced IL-8 release in d-U937 cells; assay: LPS-induced IL-8 release in d-U937 cells; type: cell-based; settings: Homo sapiens, dU937, read-out: LPS Induced Release of Cytokine in d-937 Cells IL-8 IC50
Outline: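 First, U937 monocytes undergo PMA treatment (100 ng/mL) for 48 to 72 hr to become macrophage-type. Next, compound at final concentrations is added for 2 hr, followed by LPS at 0.1 μg/mL for 4 hr. Finally, cytokines in the supernatant are quantified by ELISA against vehicle-treated cells.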

[2] = test system: d-U937 cells; assay: Cell viability: MTT assay; type: cell-based, human; settings: 1 μg/mL
Outline: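 Differentiated U937 cells were exposed to compound at 1 or 10 μg/mL either 4 h in 5% FCS RPMI1640 or 24 h in 10% FCS RPMI1640, then given MTT for 1 h, DMSO-solubilised and read at 550 nm. Percent viability loss versus 0.5% DMSO vehicle; apparent gains appear negative.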

[3] = target: p38 MAPKα (Homo sapiens (Human), UniProt Q16539); assay: p38 MAPKα enzyme inhibition (FRET, Z-LYTE); type: biochemical
Chain of p38 MAPKα (Q16539 whole entry): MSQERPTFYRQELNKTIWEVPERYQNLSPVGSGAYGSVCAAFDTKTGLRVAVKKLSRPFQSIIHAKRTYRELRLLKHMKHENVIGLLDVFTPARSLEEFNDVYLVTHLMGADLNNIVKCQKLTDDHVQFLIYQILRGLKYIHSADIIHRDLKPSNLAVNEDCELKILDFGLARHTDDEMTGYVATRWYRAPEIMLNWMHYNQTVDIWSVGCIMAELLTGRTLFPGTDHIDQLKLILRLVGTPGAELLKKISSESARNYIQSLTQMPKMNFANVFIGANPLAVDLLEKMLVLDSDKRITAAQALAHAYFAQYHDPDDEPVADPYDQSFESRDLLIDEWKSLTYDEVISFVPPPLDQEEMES

[4] = target: cSrc (Homo sapiens (Human), UniProt P12931); assay: c-Src enzyme inhibition (FRET, Z-LYTE); type: biochemical
Chain of cSrc (P12931 whole entry, looked up): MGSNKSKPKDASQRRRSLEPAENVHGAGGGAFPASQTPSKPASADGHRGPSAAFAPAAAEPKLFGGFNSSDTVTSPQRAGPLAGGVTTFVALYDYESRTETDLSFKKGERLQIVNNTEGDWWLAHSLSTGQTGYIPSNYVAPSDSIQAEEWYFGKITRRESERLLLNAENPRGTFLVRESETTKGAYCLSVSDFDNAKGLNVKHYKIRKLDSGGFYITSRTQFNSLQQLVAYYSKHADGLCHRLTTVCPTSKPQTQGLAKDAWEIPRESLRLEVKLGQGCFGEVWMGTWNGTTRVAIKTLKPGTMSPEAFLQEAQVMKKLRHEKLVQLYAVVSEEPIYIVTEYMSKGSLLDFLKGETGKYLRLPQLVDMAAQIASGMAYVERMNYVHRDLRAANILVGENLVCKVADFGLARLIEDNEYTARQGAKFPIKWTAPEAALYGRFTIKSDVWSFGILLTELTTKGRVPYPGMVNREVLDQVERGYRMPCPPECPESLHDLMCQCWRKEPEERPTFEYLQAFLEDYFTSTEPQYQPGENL
Outline: (§1)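 Z-LYTE FRET kinase assay: enzyme (3000 or 2000 ng/mL stock, respectively) preincubated 2 h at RT with compound (4–0.004 μg/mL stocks), then FRET peptide plus ATP (800 μM stock for c-Src, 60 μM for Syk) added for 1 h. Protease development 1 h; phosphorylation from coumarin/fluorescein emission ratio.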

[5] = test system: LPS-induced TNFα release in d-U937 cells; assay: LPS-induced TNFα release in d-U937 cells; type: cell-based; settings: Homo sapiens, dU937, relative to 10 μg/mL BIRB796, read-out: LPS Induced Release of Cytokine in d-937 Cells TNFα REC50
Experimental: U937 cells, a human monocytic cell line, are differentiated into macrophage-type cells by incubation with PMA (100 ng/mL) for 48 to 72 hr. Cells are pre-incubated with final concentrations of test compound for 2 hr and are then stimulated with LPS (0.1 μg/mL) (from E. coli: O111:B4, Sigma) for 4 hr. The supernatant is collected for determination of TNFα and IL-8 concentrations by sandwich ELISA (Duo-set, R&D systems). […] The relative 50% effective concentration (REC50) is determined from the resultant concentration-response curve. The inhibition of IL-8 production is calculated at each concentration of test compound by comparison with vehicle control. […] (b) LPS-Induced TNFα/IL-8 Release in PBMC Cells

[6] = target: Syk (Homo sapiens (Human), UniProt P43405); assay: Syk enzyme inhibition (FRET, Z-LYTE); type: biochemical
Outline: as §1

[7] = target: GSK3α (Homo sapiens (Human), UniProt P49840); assay: GSK 3α enzyme inhibition (FRET, Z-LYTE); type: biochemical
Chain of GSK3α (P49840 whole entry): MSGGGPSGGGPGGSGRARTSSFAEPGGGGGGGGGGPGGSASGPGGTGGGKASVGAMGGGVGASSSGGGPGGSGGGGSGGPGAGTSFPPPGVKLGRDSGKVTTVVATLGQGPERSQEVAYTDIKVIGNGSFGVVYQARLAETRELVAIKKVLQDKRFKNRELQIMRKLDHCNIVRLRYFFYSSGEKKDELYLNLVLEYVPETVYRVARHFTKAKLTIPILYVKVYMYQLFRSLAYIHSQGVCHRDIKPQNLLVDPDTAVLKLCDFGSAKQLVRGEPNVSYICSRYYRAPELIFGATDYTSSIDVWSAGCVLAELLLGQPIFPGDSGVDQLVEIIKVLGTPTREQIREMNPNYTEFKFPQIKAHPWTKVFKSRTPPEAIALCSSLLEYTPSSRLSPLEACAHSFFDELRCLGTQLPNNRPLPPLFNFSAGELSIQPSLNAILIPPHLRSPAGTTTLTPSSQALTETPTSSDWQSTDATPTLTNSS
Outline: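 GSK3α (500 ng/mL stock) was preincubated 2 hr at RT with compound (4 to 0.004 μg/mL stocks), then FRET peptide (8 μM stock) and ATP (40 μM stock) added for 1 hr. Protease development for 1 hr cleaved unphosphorylated peptide; coumarin/fluorescein emission ratio reported phosphorylation.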

[8] = test system: Poly I:C-induced ICAM-1 expression in BEAS2B cells; assay: Poly I:C-induced ICAM-1 expression in BEAS2B cells; type: cell-based; settings: Homo sapiens, BEAS-2B, read-out: Poly IC induced ICAM1 in BEAS2B IC50
Outline: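 BEAS2B human bronchial epithelial cells pre-incubated with compound for 2 hr, then transfected with 1 μg/mL poly I:C plus Oligofectamine. At 18 hr, surface ICAM-1 measured by cell-based ELISA (HRP, OD450–655). Signal corrected for cell number by crystal violet OD595.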

| SMILES | pIC50 [1] | MTT Assay Cell viability at time point in d-U937 cells 4 h [2] | MTT Assay Cell viability at time point in d-U937 cells 24 h [2] | pIC50 [3] | pIC50 [4] | pEC50 [5] | pIC50 [6] | pIC50 [7] | pIC50 [8] |
| --- | --- | --- | --- | --- | --- | --- | --- | --- | --- |
| Cc1ccc(-n2nc(C(C)(C)C)cc2NC(=O)Nc2ccc(Oc3ccnc(Nc4ccc5c(c4)CC(=O)N5C)n3)c3ccccc23)cc1 [Example 20, 1-(3-(tert-butyl)-1-(p-tolyl)-1H-pyrazol-5-yl)-3-(4-((2-((1-methyl-2-oxoindolin-5-yl)amino)pyrimidin-4-yl)oxy)naphthalen-1-yl)urea] | 8.66 | −ve (−ve and +ve indicate that the value is below and above respectively, the no significant effect threshold, defined as 30% inhibition at 1 μg/mL at the time point indicated.) | −ve (−ve and +ve indicate that the value is below and above respectively, the no significant effect threshold, defined as 30% inhibition at 1 μg/mL at the time point indicated.) | 7.21 | 6.95 | 8.77 | 8.22 | 6.05 | 8.20 |
| Cc1ccc(-n2nc(C(C)(C)C)cc2NC(=O)Nc2ccc(Oc3ccnc(Nc4cccc5cn[nH]c45)n3)c3ccccc23)cc1 [Example 25] | 8.77 | −ve (−ve and +ve indicate that the value is below and above respectively, the no significant effect threshold, defined as 30% inhibition at 1 μg/mL at the time point indicated.) | −ve (−ve and +ve indicate that the value is below and above respectively, the no significant effect threshold, defined as 30% inhibition at 1 μg/mL at the time point indicated.) | 6.28 | 7.34 | 9.10 | 6.12 | < 4.80 | 7.85 |
| Cc1ccc(-n2nc(C(C)(C)C)cc2NC(=O)Nc2ccc(Oc3ccnc(Nc4ccc5c(cnn5C)c4)n3)c3ccccc23)cc1 [Example 26, 1-(3-(tert-butyl)-1-(p-tolyl)-1H-pyrazol-5-yl)-3-(4-((2-((1-methyl-1H-indazol-5-yl)amino)pyrimidin-4-yl)oxy)naphthalen-1-yl)urea] | 8.66 | −ve (−ve and +ve indicate that the value is below and above respectively, the no significant effect threshold, defined as 30% inhibition at 1 μg/mL at the time point indicated.) | −ve (−ve and +ve indicate that the value is below and above respectively, the no significant effect threshold, defined as 30% inhibition at 1 μg/mL at the time point indicated.) | 6.84 | 7.92 | 8.66 | 6.74 | < 4.80 | 8.64 |
| Cc1ccc(-n2nc(C(C)(C)C)cc2NC(=O)Nc2ccc(Oc3ccnc(Nc4cc(C)c5[nH]ncc5c4)n3)c3ccccc23)cc1 [Example 27, 1-(3-(tert-butyl)-1-(p-tolyl)-1H-pyrazol-5-yl)-3-(4-((2-((7-methyl-1H-indazol-5-yl)amino)pyrimidin-4-yl)oxy)naphthalen-1-yl)urea] | 9.15 | −ve (−ve and +ve indicate that the value is below and above respectively, the no significant effect threshold, defined as 30% inhibition at 1 μg/mL at the time point indicated.) | −ve (−ve and +ve indicate that the value is below and above respectively, the no significant effect threshold, defined as 30% inhibition at 1 μg/mL at the time point indicated.) | 6.58 | 7.96 | 8.70 | 7.77 | < 5.80 | 8.62 |
| Cc1ccc(-n2nc(C(C)(C)C)cc2NC(=O)Nc2ccc(Oc3ccnc(Nc4cc(Cl)c5[nH]ncc5c4)n3)c3ccccc23)cc1 [Example 28, 1-(3-(tert-butyl)-1-(p-tolyl)-1H-pyrazol-5-yl)-3-(4-((2-((7-chloro-1H-indazol-5-yl)amino)pyrimidin-4-yl)oxy)naphthalen-1-yl)urea] | 8.77 | −ve (−ve and +ve indicate that the value is below and above respectively, the no significant effect threshold, defined as 30% inhibition at 1 μg/mL at the time point indicated.) | −ve (−ve and +ve indicate that the value is below and above respectively, the no significant effect threshold, defined as 30% inhibition at 1 μg/mL at the time point indicated.) | < 5.82 | 6.79 | 8.80 | 6.15 | < 5.82 | 8.47 |
| Cc1ccc(-n2nc(C(C)(C)C)cc2NC(=O)Nc2ccc(Oc3ccnc(Nc4ccc5c(cnn5CCN5CCOCC5)c4)n3)c3ccccc23)cc1 [Example 29, 1-(3-(tert-butyl)-1-(p-tolyl)-1H-pyrazol-5-yl)-3-(4-((2-((1-(2-morpholinoethyl)-1H-indazol-5-yl)amino)pyrimidin-4-yl)oxy)naphthalen-1-yl)urea] | 7.68 | −ve (−ve and +ve indicate that the value is below and above respectively, the no significant effect threshold, defined as 30% inhibition at 1 μg/mL at the time point indicated.) | −ve (−ve and +ve indicate that the value is below and above respectively, the no significant effect threshold, defined as 30% inhibition at 1 μg/mL at the time point indicated.) | 7.24 | 7.92 | 8.00 | 7.54 | 6.24 | 9.05 |
| Cc1ccc(-n2nc(C(C)(C)C)cc2NC(=O)Nc2ccc(Oc3ccnc(Nc4ccc5c(c4)OCO5)n3)c3ccccc23)cc1 [Example 33, 1-(4-((2-(benzo[d][1,3]dioxol-5-ylamino)pyrimidin-4-yl)oxy)naphthalen-1-yl)-3-(3-(tert-butyl)-1-(p-tolyl)-1H-pyrazol-5-yl)urea] | 8.48 | −ve (−ve and +ve indicate that the value is below and above respectively, the no significant effect threshold, defined as 30% inhibition at 1 μg/mL at the time point indicated.) | −ve (−ve and +ve indicate that the value is below and above respectively, the no significant effect threshold, defined as 30% inhibition at 1 μg/mL at the time point indicated.) | 6.43 | 7.64 | 8.42 | 6.17 | 5.29 | 8.57 |
| CC(C)(C)c1cc(NC(=O)Nc2ccc(Oc3ccnc(Nc4ccc5[nH]ccc5c4)n3)c3ccccc23)n(-c2ccc(O)cc2)n1 [Example 37, 1-(4-((2-((1H-indol-5-yl)amino)pyrimidin-4-yl)oxy)naphthalen-1-yl)-3-(3-(tert-butyl)-1-(4-hydroxyphenyl)-1H-pyrazol-5-yl)urea] | 8.23 | −ve (−ve and +ve indicate that the value is below and above respectively, the no significant effect threshold, defined as 30% inhibition at 1 μg/mL at the time point indicated.) | −ve (−ve and +ve indicate that the value is below and above respectively, the no significant effect threshold, defined as 30% inhibition at 1 μg/mL at the time point indicated.) | 6.48 | 7.80 | 8.60 | 6.85 | < 5.80 | 8.43 |
